Results published in ChEMBL document CHEMBL3244299, “Allylic esters as potential antitumor agents. Derivatives and analogues of 2,3-bis(hydroxymethyl)-7-oxabicyclo[2.2.1]hept-2-ene” (J Med Chem, 1979).
The source made the active and inactive calls. No cut-off for these calls is given here.

Assays:
[1] = organism: Mus musculus; test: Toxicity in mouse allografted with mouse P388 cells; assay type: organism-based
[2] = tested on: L1210; test: Cytotoxicity against mouse L1210 cells assessed as growth inhibition after 40 hrs; assay type: functional
[3] = tested on: L1210; test: Cytotoxicity against mouse L1210 cells assessed as growth inhibition at 10^-5 M after 40 hrs relative to control; assay type: functional; conditions: L1210, 40 h, read-out: GI
[4] = tested on: L1210; test: Antitumor activity against mouse L1210 cells allografted in mouse; assay type: functional, cell-based
[5] = tested on: L1210; test: Cytotoxicity against mouse L1210 cells assessed as growth inhibition at 10^-4 M after 40 hrs relative to control; assay type: functional; conditions: L1210, 40 h, read-out: GI
[6] = tested on: P388; test: Antitumor activity against mouse P388 cells allografted in mouse assessed as tumor growth inhibition at 25 mg/kg relative to control; assay type: functional
[7] = tested on: L1210; test: Cytotoxicity against mouse L1210 cells assessed as growth inhibition at 10^-6 M after 40 hrs relative to control; assay type: functional; conditions: L1210, 40 h, read-out: GI

In the case of CNC(=O)OCC1=C(COC(=O)NC)[C@@H]2O[C@H]1C(C(=O)OC)=C2C(=O)OC, the Activity [1] is reported as “Toxic”.

CC(=O)OCC1=C(COC(C)=O)[C@@H]2O[C@H]1[C@H](O)[C@@H]2O was tested, and the ID50 [2] was greater than 1 ×10⁻⁴ M, the inhibition of growth at 10 µM [3] was 3% and the Activity [4] was “inactive”. The inhibition of growth at 100 µM [5] was 41%.

In the case of CCCCNC(=O)OCC1=C(COC(=O)NCCCC)[C@@H]2O[C@H]1C(C(=O)OC)=C2C(=O)OC, the T/C [6] is reported as 123%.

CCOC(=O)N1[C@@H]2O[C@@H](C(COC(C)=O)=C2COC(C)=O)N1C(=O)OCC gave an ID50 [2] of 3 ×10⁻⁵ M, an inhibition of growth at 10 µM [3] of 41% and an inhibition of growth at 1 µM [7] of 13%. The Activity [4] was “inactive” and the inhibition of growth at 100 µM [5] was 78%.

Compound CC(=O)OCC1=C(COC(C)=O)[C@@H]2O[C@H]1[C@H](OC(C)=O)[C@@H]2OC(C)=O has an ID50 [2] greater than 1 ×10⁻⁴ M, an inhibition of growth at 10 µM [3] of 19% and an inhibition of growth at 1 µM [7] of 1%. The Activity [4] was “inactive” and the inhibition of growth at 100 µM [5] was 34%.

With COC(=O)C1=C(C(=O)OC)[C@H]2O[C@@H]1C(COC(C)=O)=C2COC(C)=O the IC50 ([2]; Mus musculus, L1210, 40 h, read-out: ID50 (the source's name)) was less than 1 µM, the inhibition of growth at 10 µM [3] was 93% and the inhibition of growth at 1 µM [7] was 93%. For the same compound, the Activity [4] was “inactive” and the inhibition of growth at 100 µM [5] was 93%.
